Source: patent US20260207602A1, “EGFR INHIBITORS” (Blueprint Medicines Corporation, priority 2022, published 2026)

How the values were obtained:
EGFR (d746-750) = molecular target: T1, EGFR (d746-750) (Homo sapiens, UniProt P00533, DEL746-750); assay: Biochemical EGFR inhibition assay (Caliper mobility shift), EGFR (d746-750); settings: biochemical Caliper mobility shift assay, EGFR Exon 19-del enzyme; read-out: Enz EGFR Exon 19-del IC50
T1 construct: purchased SignalChem E10-122JG
Method in brief: (§1)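 Compounds were titrated against enzyme phosphorylating a 5-FAM peptide (2.5 µM) in 100 mM HEPES, pH 7.5, 10 mM MgCl2, 1 mM DTT. ATP was held at 1.0 mM or at Km, and reactions ran at 25 °C until 10–20% conversion before EDTA quench. Apparent IC50 values come from percent activity plotted against log concentration.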

EGFR L858R = molecular target: T2, EGFR L858R (Homo sapiens, UniProt P00533, L858R); assay: Biochemical EGFR inhibition assay (Caliper mobility shift), EGFR L858R; settings: biochemical Caliper mobility shift assay, EGFR L858R enzyme; read-out: Enz EGFR L858R IC50
T2 construct: purchased SignalChem E10-122BG
T2 sequence (P00533 25-1210 L858R): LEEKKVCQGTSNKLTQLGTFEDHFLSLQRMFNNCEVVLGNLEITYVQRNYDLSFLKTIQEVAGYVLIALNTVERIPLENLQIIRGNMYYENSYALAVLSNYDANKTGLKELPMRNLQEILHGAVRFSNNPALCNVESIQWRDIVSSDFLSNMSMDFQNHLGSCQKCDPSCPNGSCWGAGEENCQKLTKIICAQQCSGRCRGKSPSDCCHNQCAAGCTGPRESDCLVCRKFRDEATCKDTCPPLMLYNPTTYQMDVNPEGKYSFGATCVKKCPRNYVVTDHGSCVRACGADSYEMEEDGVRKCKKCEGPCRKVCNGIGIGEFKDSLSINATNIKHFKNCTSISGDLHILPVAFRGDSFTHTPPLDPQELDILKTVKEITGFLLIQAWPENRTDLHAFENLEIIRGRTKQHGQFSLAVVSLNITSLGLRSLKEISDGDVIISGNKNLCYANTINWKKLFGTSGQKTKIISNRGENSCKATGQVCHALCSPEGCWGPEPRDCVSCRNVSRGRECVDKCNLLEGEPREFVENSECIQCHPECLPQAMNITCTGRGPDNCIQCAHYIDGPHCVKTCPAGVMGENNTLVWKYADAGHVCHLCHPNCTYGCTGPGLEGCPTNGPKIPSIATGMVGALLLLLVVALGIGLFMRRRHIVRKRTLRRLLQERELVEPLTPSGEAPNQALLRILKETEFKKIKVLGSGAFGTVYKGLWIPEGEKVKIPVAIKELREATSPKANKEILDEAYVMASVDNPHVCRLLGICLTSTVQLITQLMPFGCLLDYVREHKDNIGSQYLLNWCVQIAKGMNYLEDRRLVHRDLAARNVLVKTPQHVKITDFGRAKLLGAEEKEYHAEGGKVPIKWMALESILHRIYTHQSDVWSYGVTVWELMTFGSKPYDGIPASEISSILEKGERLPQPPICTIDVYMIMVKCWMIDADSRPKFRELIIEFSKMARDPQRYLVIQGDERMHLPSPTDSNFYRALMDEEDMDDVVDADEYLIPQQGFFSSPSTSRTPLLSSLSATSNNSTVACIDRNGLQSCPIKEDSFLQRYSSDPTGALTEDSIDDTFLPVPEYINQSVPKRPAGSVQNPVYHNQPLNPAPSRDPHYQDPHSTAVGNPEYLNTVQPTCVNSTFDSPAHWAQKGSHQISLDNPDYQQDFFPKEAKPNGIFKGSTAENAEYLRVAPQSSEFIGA
Method in brief: as §1

[1] = molecular target: intracellular phosphorylation of EGFR (Tyr1068) in PC-9 cells (Homo sapiens, UniProt P00533, DEL746-750); assay: PC-9 pEGFR AlphaLISA assay; type: cell-based; settings: 4 hours incubation, read-out: Phos EGFR PC9 IC50
Chain of intracellular phosphorylation of EGFR (Tyr1068) in PC-9 cells (P00533 with tags, fused parts or gaps DEL746-750): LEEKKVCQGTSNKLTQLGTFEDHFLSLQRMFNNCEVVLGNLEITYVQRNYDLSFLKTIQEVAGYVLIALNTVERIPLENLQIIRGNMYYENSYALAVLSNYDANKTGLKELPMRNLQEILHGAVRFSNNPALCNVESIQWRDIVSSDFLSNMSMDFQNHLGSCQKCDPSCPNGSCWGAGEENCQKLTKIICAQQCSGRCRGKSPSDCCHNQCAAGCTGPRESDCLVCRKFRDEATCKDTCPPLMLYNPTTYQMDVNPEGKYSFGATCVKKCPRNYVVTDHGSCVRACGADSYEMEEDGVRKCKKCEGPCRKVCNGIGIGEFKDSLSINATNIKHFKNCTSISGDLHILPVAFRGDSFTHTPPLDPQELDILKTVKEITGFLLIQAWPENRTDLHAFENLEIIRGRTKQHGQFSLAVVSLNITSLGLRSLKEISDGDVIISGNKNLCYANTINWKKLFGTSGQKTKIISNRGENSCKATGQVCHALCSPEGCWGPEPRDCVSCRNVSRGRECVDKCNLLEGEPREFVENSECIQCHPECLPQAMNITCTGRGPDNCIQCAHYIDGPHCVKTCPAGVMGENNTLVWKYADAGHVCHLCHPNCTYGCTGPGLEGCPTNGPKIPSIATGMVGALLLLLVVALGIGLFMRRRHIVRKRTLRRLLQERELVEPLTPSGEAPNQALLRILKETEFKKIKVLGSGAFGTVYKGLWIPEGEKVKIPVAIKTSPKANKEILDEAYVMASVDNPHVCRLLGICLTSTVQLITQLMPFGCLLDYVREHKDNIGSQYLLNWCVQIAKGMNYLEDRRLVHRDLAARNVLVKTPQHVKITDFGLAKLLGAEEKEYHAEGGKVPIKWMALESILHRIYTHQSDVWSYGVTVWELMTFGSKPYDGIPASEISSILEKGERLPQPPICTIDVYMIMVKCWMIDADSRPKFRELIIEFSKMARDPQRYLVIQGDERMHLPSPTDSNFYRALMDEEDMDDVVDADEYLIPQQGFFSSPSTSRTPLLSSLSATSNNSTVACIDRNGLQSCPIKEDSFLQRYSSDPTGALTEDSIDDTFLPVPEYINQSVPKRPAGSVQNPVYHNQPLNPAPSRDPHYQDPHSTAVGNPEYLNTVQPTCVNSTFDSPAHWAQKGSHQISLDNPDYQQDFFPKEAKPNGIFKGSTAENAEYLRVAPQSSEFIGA
Method in brief: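 PC-9 cells (EGFR del746-750) in phenol-free DMEM/10% FBS, adhered overnight, then exposed to 10-point 4-fold compound dilutions for 4 h at 37 °C. Lysates assayed for pEGFR Tyr1068 by AlphaLISA SureFire Ultra; IC50 from percent pEGFR inhibition vs log concentration.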

T1 sequence (P00533 with tags, fused parts or gaps DEL746-750 limits assumed): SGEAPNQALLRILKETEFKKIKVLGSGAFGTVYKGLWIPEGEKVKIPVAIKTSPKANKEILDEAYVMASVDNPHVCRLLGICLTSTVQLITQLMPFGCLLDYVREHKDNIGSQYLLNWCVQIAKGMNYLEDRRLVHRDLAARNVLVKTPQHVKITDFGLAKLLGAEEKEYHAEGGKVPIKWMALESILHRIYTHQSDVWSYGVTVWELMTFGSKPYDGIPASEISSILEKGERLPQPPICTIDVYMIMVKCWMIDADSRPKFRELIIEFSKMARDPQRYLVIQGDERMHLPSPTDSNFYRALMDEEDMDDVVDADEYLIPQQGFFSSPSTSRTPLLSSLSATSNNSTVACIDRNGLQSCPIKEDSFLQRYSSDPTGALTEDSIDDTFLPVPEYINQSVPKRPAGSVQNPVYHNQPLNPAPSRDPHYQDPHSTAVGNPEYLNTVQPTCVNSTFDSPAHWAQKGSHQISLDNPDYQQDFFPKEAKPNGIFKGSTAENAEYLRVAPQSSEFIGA

C[C@@H](Oc1cc(N2CC3CC(C2)O3)cc2ncnc(Nc3ccc4ncsc4c3)c12)C1COC1 [Example 129, N-(7-(6-oxa-3-azabicyclo[3.1.1]heptan-3-yl)-5-((R)-1-(oxetan-3-yl)ethoxy)quinazolin-4-yl)benzo[d]thiazol-6-amine]
IC50 (EGFR (d746-750)): ≤ 10 nM
IC50 (EGFR L858R): ≤ 10 nM
IC50 [1]: ≤ 10 nM

COC[C@@H](C)Oc1cc(N2CCN(C)C[C@H]2C)cc2ncnc(Nc3ccc4ncsc4c3)c12 (single isomer, unassigned) [Example 212]
IC50 (EGFR (d746-750)): 10.1 to 50 nM
IC50 (EGFR L858R): 10.1 to 50 nM
IC50 [1]: > 50.1 nM

Cn1cc(-c2cc(O[C@H]3CNC[C@@H]3F)c3c(Nc4ccc5ncsc5c4)ncnc3c2)cn1 [Example 382, N-(5-(((3S,4S)-4-fluoropyrrolidin-3-yl)oxy)-7-(1-methyl-1H-pyrazol-4-yl)quinazolin-4-yl)benzo[d]thiazol-6-amine]
IC50 (EGFR (d746-750)): ≤ 10 nM
IC50 (EGFR L858R): 10.1 to 50 nM
IC50 [1]: > 50.1 nM

Cn1cc(-c2cc(OC3COCOC3)c3c(Nc4ccc5ncsc5c4)ncnc3c2)cn1 [Example A59, N-(5-((1,3-dioxan-5-yl)oxy)-7-(1-methyl-1H-pyrazol-4-yl)quinazolin-4-yl)benzo[d]thiazol-6-amine]
IC50 (EGFR (d746-750)): ≤ 10 nM
IC50 (EGFR L858R): ≤ 10 nM
IC50 [1]: 10.1 to 50 nM

COC[C@@H](C)Oc1cc(N2CCN(CCO)CC2)cc2ncnc(Nc3ccc4ncsc4c3)c12 [Example 196, (R)-2-(4-(4-(benzo[d]thiazol-6-ylamino)-5-((1-methoxypropan-2-yl)oxy)quinazolin-7-yl)piperazin-1-yl)ethan-1-ol]
IC50 (EGFR (d746-750)): ≤ 10 nM
IC50 (EGFR L858R): ≤ 10 nM
IC50 [1]: 10.1 to 50 nM

CN1C[C@H](F)[C@H](Oc2cc(-c3cnn(C)c3)cc3ncnc(Nc4ccc5ncsc5c4)c23)C1 (single isomer, unassigned) [Example 380]
IC50 (EGFR (d746-750)): ≤ 10 nM
IC50 (EGFR L858R): ≤ 10 nM
IC50 [1]: 10.1 to 50 nM

COc1nn(C)cc1-c1cc(O[C@H]2CCNC[C@@H]2F)c2c(Nc3ccc4ncsc4c3)ncnc2c1 (single isomer, unassigned) [Example 360]
IC50 (EGFR (d746-750)): ≤ 10 nM
IC50 (EGFR L858R): ≤ 10 nM
IC50 [1]: ≤ 10 nM

COCCN1CCC(Oc2cc(-c3cnn(C)c3)cc3ncnc(Nc4ccc5ncsc5c4)c23)CC1 [Example 313, N-(5-((1-(2-methoxyethyl)piperidin-4-yl)oxy)-7-(1-methyl-1H-pyrazol-4-yl)quinazolin-4-yl)benzo[d]thiazol-6-amine]
IC50 (EGFR (d746-750)): ≤ 10 nM
IC50 (EGFR L858R): ≤ 10 nM
IC50 [1]: 10.1 to 50 nM

Cn1cc(-c2cc(OC[C@]34COC[C@H]3C4)c3c(Nc4ccc5ncsc5c4)ncnc3c2)cn1 (single isomer, unassigned) [Example 147]
IC50 (EGFR (d746-750)): ≤ 10 nM
IC50 (EGFR L858R): 10.1 to 50 nM
IC50 [1]: 10.1 to 50 nM

COc1cc(O[C@H](C)C2COC2)c2c(Nc3ccc4ncsc4c3)ncnc2c1 [Example 124, (R)-N-(7-methoxy-5-(1-(oxetan-3-yl)ethoxy)quinazolin-4-yl)benzo[d]thiazol-6-amine]
IC50 (EGFR (d746-750)): ≤ 10 nM
IC50 (EGFR L858R): ≤ 10 nM
IC50 [1]: 10.1 to 50 nM

Cn1cc(-c2cc(O[C@@H]3CCOC3)c3c(Nc4ccc5ncsc5c4)ncnc3c2)cn1 [Example 37, (R)-N-(7-(1-methyl-1H-pyrazol-4-yl)-5-((tetrahydrofuran-3-yl)oxy)quinazolin-4-yl)benzo[d]thiazol-6-amine]
IC50 (EGFR (d746-750)): ≤ 10 nM
IC50 (EGFR L858R): ≤ 10 nM
IC50 [1]: 10.1 to 50 nM

C[C@H]1[C@H](Oc2cc(-c3cnn(C)c3)cc3ncnc(Nc4ccc5ncsc5c4)c23)CN1C (single isomer, unassigned) [Example 321]
IC50 (EGFR (d746-750)): ≤ 10 nM
IC50 (EGFR L858R): 10.1 to 50 nM
IC50 [1]: 10.1 to 50 nM

Cn1cc(-c2cc(O[C@H]3CCCNC3)c3c(Nc4ccc5ncsc5c4)ncnc3c2)cn1 [Example 134, (S)-N-(7-(1-methyl-1H-pyrazol-4-yl)-5-(piperidin-3-yloxy)quinazolin-4-yl)benzo[d]thiazol-6-amine]
IC50 (EGFR (d746-750)): ≤ 10 nM
IC50 (EGFR L858R): ≤ 10 nM
IC50 [1]: 10.1 to 50 nM

COCCOc1cc(O[C@H](C)C2COC2)c2c(Nc3ccc4ncsc4c3F)ncnc2c1 (single isomer, unassigned) [Example 84]
IC50 (EGFR (d746-750)): ≤ 10 nM
IC50 (EGFR L858R): ≤ 10 nM
IC50 [1]: ≤ 10 nM

Cn1cc(-c2cc(OC3CCCOC3)c3c(Nc4ccc5ncsc5c4)ncnc3c2)cn1 (single isomer, unassigned) [Example 6]
IC50 (EGFR (d746-750)): ≤ 10 nM
IC50 (EGFR L858R): ≤ 10 nM
IC50 [1]: ≤ 10 nM

C[C@@H](CN(C)C)Oc1cc(-c2cnn(C)c2)cc2ncnc(Nc3ccc4ncsc4c3)c12 (single isomer, unassigned) [Example 159, (S)—N-(5-((1-(dimethylamino)propan-2-yl)oxy)-7-(1-methyl-1H-pyrazol-4-yl)quinazolin-4-yl)benzo[d]thiazol-6-amine or (R)—N-(5-((1-(dimethylamino)propan-2-yl)oxy)-7-(1-methyl-1H-pyrazol-4-yl)quinazolin-4-yl)benzo[d]thiazol-6-amine]
IC50 (EGFR (d746-750)): ≤ 10 nM
IC50 (EGFR L858R): 10.1 to 50 nM
IC50 [1]: 10.1 to 50 nM

CC(C)N1CCN(c2cc(OC3CCOCC3)c3c(Nc4ccc5ncsc5c4)ncnc3c2)C1=O [Example 194, 1-(4-(benzo[d]thiazol-6-ylamino)-5-((tetrahydro-2H-pyran-4-yl)oxy)quinazolin-7-yl)-3-isopropylimidazolidin-2-one]
IC50 (EGFR (d746-750)): ≤ 10 nM
IC50 (EGFR L858R): ≤ 10 nM
IC50 [1]: ≤ 10 nM

Cn1cc(-c2cc(OC3COC3)c3c(Nc4ccc5ncsc5c4)ncnc3c2)c(OC(F)F)n1 [Example 250, N-(7-(3-(difluoromethoxy)-1-methyl-1H-pyrazol-4-yl)-5-(oxetan-3-yloxy)quinazolin-4-yl)benzo[d]thiazol-6-amine]
IC50 (EGFR (d746-750)): ≤ 10 nM
IC50 (EGFR L858R): ≤ 10 nM
IC50 [1]: 10.1 to 50 nM

C[C@@H](Oc1cc(-c2cn(C)n(C(F)F)c2=O)cc2ncnc(Nc3ccc4ncsc4c3)c12)C1COC1 (single isomer, unassigned) [Example 175]
IC50 (EGFR (d746-750)): ≤ 10 nM
IC50 (EGFR L858R): ≤ 10 nM
IC50 [1]: 10.1 to 50 nM

[2H]C([2H])([2H])Oc1cc(O[C@H](C)C2COC2)c2c(Nc3ccc4ncsc4c3F)ncnc2c1 [Example 130, (R)-7-fluoro-N-(7-(methoxy-d3)-5-(1-(oxetan-3-yl)ethoxy)quinazolin-4-yl)benzo[d]thiazol-6-amine]
IC50 (EGFR (d746-750)): ≤ 10 nM
IC50 (EGFR L858R): ≤ 10 nM
IC50 [1]: ≤ 10 nM

Cn1cc(-c2cc(O[C@H]3CCNC[C@H]3F)c3c(Nc4ccc5ncsc5c4)ncnc3c2)c(OC(F)F)n1 [Example 366, N-(7-(3-(difluoromethoxy)-1-methyl-1H-pyrazol-4-yl)-5-(((3R,4S)-3-fluoropiperidin-4-yl)oxy)quinazolin-4-yl)benzo[d]thiazol-6-amine]
IC50 (EGFR (d746-750)): ≤ 10 nM
IC50 (EGFR L858R): 10.1 to 50 nM
IC50 [1]: ≤ 10 nM

CN1CC[C@H](Oc2cc(-c3cnn(C)c3)cc3ncnc(Nc4ccc5ncsc5c4F)c23)C1=O (single isomer, unassigned) [Example 73]
IC50 (EGFR (d746-750)): ≤ 10 nM
IC50 (EGFR L858R): ≤ 10 nM
IC50 [1]: 10.1 to 50 nM

Cn1cc(-c2cc(O[C@@H]3CC[C@H]3O)c3c(Nc4ccc5ncsc5c4)ncnc3c2)cn1 (single isomer, unassigned) [Example A54]
IC50 (EGFR (d746-750)): ≤ 10 nM
IC50 (EGFR L858R): ≤ 10 nM
IC50 [1]: 10.1 to 50 nM

C[C@@H]1CN(c2cc(O[C@H](C)C3COC3)c3c(Nc4ccc5ncsc5c4F)ncnc3c2)CCN1C (single isomer, unassigned) [Example 102]
IC50 (EGFR (d746-750)): ≤ 10 nM
IC50 (EGFR L858R): ≤ 10 nM
IC50 [1]: ≤ 10 nM

Cn1cc(-c2cc(OC3CCN(C4CCOCC4)CC3)c3c(Nc4ccc5ncsc5c4)ncnc3c2)cn1 [Example 412, N-(7-(1-methyl-1H-pyrazol-4-yl)-5-((1-(tetrahydro-2H-pyran-4-yl)piperidin-4-yl)oxy)quinazolin-4-yl)benzo[d]thiazol-6-amine]
IC50 (EGFR (d746-750)): ≤ 10 nM
IC50 (EGFR L858R): 10.1 to 50 nM
IC50 [1]: 10.1 to 50 nM

CO[C@@H]1CNCC[C@H]1Oc1cc(-c2cnn(C)c2)cc2ncnc(Nc3ccc4ncsc4c3)c12 (single isomer, unassigned) [Example A41]
IC50 (EGFR (d746-750)): ≤ 10 nM
IC50 (EGFR L858R): ≤ 10 nM
IC50 [1]: 10.1 to 50 nM

CN(C)C1CCC1Oc1cc(-c2cnn(C)c2)cc2ncnc(Nc3ccc4ncsc4c3)c12 [Example 153, N-(5-((1S,2S)-2-(dimethylamino)cyclobutoxy)-7-(1-methyl-1H-pyrazol-4-yl)quinazolin-4-yl)benzo[d]thiazol-6-amine OR N-(5-((1R,2R)-2-(dimethylamino)cyclobutoxy)-7-(1-methyl-1H-pyrazol-4-yl)quinazolin-4-yl)benzo[d]thiazol-6-amine]
IC50 (EGFR (d746-750)): ≤ 10 nM
IC50 (EGFR L858R): ≤ 10 nM
IC50 [1]: 10.1 to 50 nM

C[C@@H](CN(C)C)Oc1cc(N2CCN(C)CC2)cc2ncnc(Nc3ccc4ncsc4c3)c12 (single isomer, unassigned) [Example 117]
IC50 (EGFR (d746-750)): 10.1 to 50 nM
IC50 (EGFR L858R): 10.1 to 50 nM
IC50 [1]: 10.1 to 50 nM

COc1cc2ncnc(Nc3ccc4ncsc4c3)c2cc1NC(=O)C1CN(C)C1 [Example 402, N-(4-(benzo[d]thiazol-6-ylamino)-7-methoxyquinazolin-6-yl)-1-methylazetidine-3-carboxamide]
IC50 (EGFR (d746-750)): 10.1 to 50 nM
IC50 (EGFR L858R): > 50.1 nM
IC50 [1]: 10.1 to 50 nM

COc1nn(C)cc1-c1cc(O[C@H]2CN(C)C[C@H]2F)c2c(Nc3ccc4ncsc4c3)ncnc2c1 (single isomer, unassigned) [Example 373]
IC50 (EGFR (d746-750)): ≤ 10 nM
IC50 (EGFR L858R): ≤ 10 nM
IC50 [1]: ≤ 10 nM
